According to patent US20240024313A1, “BIARYL ETHER UREA COMPOUNDS” (Jazz Pharmaceuticals Ireland Limited, priority 2022, published 2024):

Columns and labels:
Human FAAH = molecular target: T1, Human FAAH (Homo sapiens, UniProt O00519); experiment: Fluorometric-based Human FAAH Inhibition Assay; type: biochemical; details: recombinant human FAAH 125 nM, 1 hour preincubation, AMC Arachidonoyl Amide substrate
T1 construct: Recombinant human FAAH encoding full length amino acids were expressed in insect cells; made in house; host or cells: insect cells (baculovirus infection)
T1 sequence (O00519 1-579): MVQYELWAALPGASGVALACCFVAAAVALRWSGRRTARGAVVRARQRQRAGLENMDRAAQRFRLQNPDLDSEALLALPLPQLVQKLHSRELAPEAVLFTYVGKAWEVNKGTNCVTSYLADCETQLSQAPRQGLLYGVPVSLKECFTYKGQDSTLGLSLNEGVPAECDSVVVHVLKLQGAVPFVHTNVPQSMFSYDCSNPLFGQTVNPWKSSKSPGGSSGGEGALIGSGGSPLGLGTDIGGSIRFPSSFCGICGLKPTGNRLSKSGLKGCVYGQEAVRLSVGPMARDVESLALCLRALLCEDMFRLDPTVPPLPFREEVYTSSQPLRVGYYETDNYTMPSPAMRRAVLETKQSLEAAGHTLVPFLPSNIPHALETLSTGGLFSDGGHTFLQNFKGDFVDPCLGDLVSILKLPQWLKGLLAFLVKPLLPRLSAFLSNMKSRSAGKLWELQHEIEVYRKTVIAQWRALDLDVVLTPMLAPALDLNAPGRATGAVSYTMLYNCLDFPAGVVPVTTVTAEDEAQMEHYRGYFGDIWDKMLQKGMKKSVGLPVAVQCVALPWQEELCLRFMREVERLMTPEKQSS
Procedure: Human FAAH protein was prepared using the following method: Recombinant human FAAH encoding full length amino acids were expressed in insect cells using baculovirus infection as C-terminal (non-cleavable) 8×His tag fusion protein. Protein was supplied as cell lysate: resuspended 100,000×g pellet at 5.12 mg/ml a buffer containing 20 mM HEPES, pH 7.8, 150 mM NaCl, 1 mM EDTA, 1 mM DTT, 0.5% CHAPS. Specific activity was determined to be 844 U/mg.
Fluorometric-based Human FAAH Inhibition Assay was performed using the following method:
(§1) Assays were performed in standard-volume, black, non-binding 384-well plates (Corning #3654). All additions were carried out using the Agilent Bravo Automated Liquid Handler using an 384ST pipetting head.
(§2) FAAH reactions contained 125 nM Fatty Acid Amide Hydrolase (human, recombinant) diluted in an assay buffer containing Tris-EDTA, pH 9.0 at ambient temperature. To obtain 125 nM FAAH per well, a working stock was made at 312.5 nM by diluting 94 μL of 79.63 μM enzyme to 24 mL of assay buffer, then adding 20 μL to each well. Using the mother plates (prepared at 1000× in DMSO), the Agilent Bravo performed a 1:100 dilution step in assay buffer prior to adding 5 μL to each well for an additional 1:10 dilution.
Plates were incubated at room-temperature for 1 hour.
(§3) To initialize the reaction, a final concentration of 204 of AMC Arachidonoyl Amide was added to each well. To obtain this concentration, a working stock was made at 404 by adding 960 μL of 0.1 mM AMC stock to 24 mL of assay buffer, then 25 μL was added to each well. This stock was made at 4% DMSO for a final assay concentration contribution of 2% DMSO.
(§4) The total reaction volume per well was 50 μL. The reactions were allowed to proceed at 37° C. for 30 minutes with fluorescence monitored using a Cytation 5 Multimode imaging plate reader (BioTek Instruments) using excitation and emission wavelengths of 350/10 nm and 455/10 nm, respectively. Rates (RFU/min) were calculated from the linear portion of the reaction curves using a linear least squares curve fitting method using Gen5 v3.10. Calculated rates were then normalized to DMSO control and presented as percentages. Data were graphed and statistics were performed using GraphPad Prism v9.0.1.
Data for the Fluorometric-based Human FAAH Inhibition Assay are recited in Table 2 and in FIG. 1.

Rat FAAH = molecular target: T2, Rat FAAH (Rattus norvegicus, UniProt P97612); experiment: Fluorometric-based Rat FAAH Inhibition Assay; type: biochemical; details: recombinant rat FAAH 20 nM, 1 hour preincubation, 2 μM AMC Arachidonoyl Amide substrate
T2 construct: truncated rat FAAH encoding amino acids residues 30-579; 6xHis (N); TEV cleavage site (N); made in house; host or cells: E. coli (pLysS cells)
T2 sequence (P97612 30-579): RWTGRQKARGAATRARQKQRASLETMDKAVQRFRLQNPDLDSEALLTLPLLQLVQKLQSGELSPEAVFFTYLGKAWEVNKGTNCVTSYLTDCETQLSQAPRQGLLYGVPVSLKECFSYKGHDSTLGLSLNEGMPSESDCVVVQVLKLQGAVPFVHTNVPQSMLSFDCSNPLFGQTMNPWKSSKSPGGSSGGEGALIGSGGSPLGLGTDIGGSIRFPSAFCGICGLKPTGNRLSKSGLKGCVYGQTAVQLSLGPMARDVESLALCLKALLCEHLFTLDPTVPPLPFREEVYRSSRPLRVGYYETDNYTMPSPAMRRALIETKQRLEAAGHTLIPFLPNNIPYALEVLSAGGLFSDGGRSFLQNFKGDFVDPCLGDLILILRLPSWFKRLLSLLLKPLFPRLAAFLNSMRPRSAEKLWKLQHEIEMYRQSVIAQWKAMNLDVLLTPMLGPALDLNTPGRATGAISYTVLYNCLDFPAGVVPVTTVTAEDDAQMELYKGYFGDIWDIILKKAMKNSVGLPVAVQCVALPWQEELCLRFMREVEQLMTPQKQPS
Procedure: Rat FAAH protein was prepared using the following method: Recombinant truncated rat FAAH encoding amino acids residues 30-579 were expressed in E. coli as NH2-terminal 6×HIS-tag and a TEV-cleavage site fusion protein. 6 L pLysS cells were induced to express FAAH. Cells were lysed and centrifuged. The insoluble pellet was resuspended using a Dounce homogenizer in CHAPS-containing buffer and allowed to stir at 4° C. for 1 hour. The resuspended pellet was then centrifuged and rat FAAH in the clarified supernatant was purified by IMAC. The purest protein fractions were pooled, and buffer exchanged into storage buffer by dialysis. The protein concentration was determined by Bradford assay aliquots were flash frozen in liquid nitrogen.
Fluorometric-based Rat FAAH Inhibition Assay was performed using the following method:
as §1
as §2, with “20” for “125”, “(rat,” for “(human,”, “50” for “312.5”, “150” for “94”, “7.93” for “79.63”
Plates were incubated at room temperature for 1 hour.
as §3, with “reaction” for “reaction,”, “2 μM” for “204”, “concentration” for “concentration,”, “4 μM” for “404”
as §4
Data for the Fluorometric-based Rat FAAH Inhibition Assay are recited in Table 2 and in FIG. 2.

[1] = Phase 1 crossover pharmacokinetic study of Compound of Formula (II) formulations in healthy adult participants; details: human, in vivo, oral, preliminary data; for AUC(0-t) / Cmax: 4 mg
Procedure: Partial preliminary data on Compound of Formula (II), Compound B, and Compound C) were obtained from a phase 1, single-center, open-label, randomized, 3-period, 2-sequence crossover study to characterize the PK, safety, and tolerability of Compound of Formula (II) formulations (capsule vs tablet) in healthy adult participants. In Periods 1 and 2, participants were randomized to receive 4 mg Compound of Formula (II) capsule formulation or 4 mg Compound of Formula (II) tablet formulation.
Pharmacokinetic parameters for compound of Formula (II), Compound B, and Compound C following single dose of 4 mg of compound of Formula (II) are provided in Table 3. Pharmacokinetic parameters for compound of Formula (II), Compound B, and Compound C following multiple doses of 4 mg of compound of Formula (II) are provided in Table 4.

[2] = following multiple doses of 4 mg of compound of Formula (II)
[3] = following single dose of 4 mg of compound of Formula (II)

IC50 (Human FAAH) | IC50 (Rat FAAH) | AUC(0-t) [1, 2] | Cmax [1, 2] | AUC(0-t) [1, 3] | Cmax [1, 3] | AUC [1, 2] | Tmax [1, 2] | half-life [1, 2] | SMILES
34400 ± 24100 nM |  |  |  |  |  |  |  |  | FC(F)(F)c1ccc(Oc2cccc(C=C3CCNCC3)c2)nc1 [Compound E, 2-(3-(piperidin-4-ylidenemethyl)phenoxy)-5-(trifluoromethyl)pyridine]
758 ± 11.2 nM | 39.6 ± 5.84 nM | 281 ng·h/mL | 3.9 ng/mL | 1.1 ng·h/mL | 0.4 ng/mL | 86 ng·h/mL | 8 h | 40.4 h | O=C(O)CCC(=O)NC(=O)N1CCC(=Cc2cccc(Oc3ccc(C(F)(F)F)cn3)c2)CC1 [Compound C, 4-oxo-4-(4-(3-((5-(trifluoromethyl)pyridin-2-yl)oxy)benzylidene)piperidine-1-carboxamido)butanoic acid]
9.01 ± 0.68 nM | 56.8 ± 16.6 nM |  |  |  |  |  |  |  | O=C(Nc1cccnn1)N1CC/C(=C\c2cccc(Oc3ccc(C(F)(F)F)cn3)c2)[C@@H](O)C1 [Compound A-RE, (R,E)-3-hydroxy-N-(pyridazin-3-yl)-4-(3-((5-(trifluoromethyl)pyridin-2-yl)oxy)benzylidene)piperidine-1-carboxamide]
3.56 ± 0.67 nM | 10.2 ± 1.17 nM | 1340 ng·h/mL | 46.6 ng/mL | 138 ng·h/mL | 31.3 ng/mL | 625 ng·h/mL | 2 h | 32.2 h | O=C(Nc1cccnn1)N1CCC(=Cc2cccc(Oc3ccc(C(F)(F)F)cn3)c2)CC1 [Compound of Formula (II), reference compound]
39.3 ± 2.89 nM | 170 ± 43 nM |  |  |  |  |  |  |  | O=C(Nc1cccnn1)N1CC/C(=C/c2cccc(Oc3ccc(C(F)(F)F)cn3)c2)[C@@H](O)C1 [Compound A-RZ, (R,Z)-3-hydroxy-N-(pyridazin-3-yl)-4-(3-((5-(trifluoromethyl)pyridin-2-yl)oxy)benzylidene)piperidine-1-carboxamide]
555 ± 84.4 nM | 3480 ± 654 nM |  |  |  |  |  |  |  | O=C(Nc1cccnn1)N1CCC(O)(C(O)c2cccc(Oc3ccc(C(F)(F)F)cn3)c2)CC1 (centres unmarked) [Compound D, 4-hydroxy-4-(hydroxy(3-((5-(trifluoromethyl)pyridin-2-yl)oxy)phenyl)methyl)-N-(pyridazin-3-yl)piperidine-1-carboxamide]
439 ± 14.7 nM | 3720 ± 542 nM |  |  |  |  |  |  |  | O=C(Nc1cccnn1)N1CC/C(=C\c2cccc(Oc3ccc(C(F)(F)F)cn3)c2)[C@H](O)C1 [Compound A-SE, (S,E)-3-hydroxy-N-(pyridazin-3-yl)-4-(3-((5-(trifluoromethyl)pyridin-2-yl)oxy)benzylidene)piperidine-1-carboxamide]
300 ± 54.9 nM | 3290 ± 583 nM |  |  |  |  |  |  |  | O=C(Nc1cccnn1)N1CC/C(=C/c2cccc(Oc3ccc(C(F)(F)F)cn3)c2)[C@H](O)C1 [Compound A-SZ, (S,Z)-3-hydroxy-N-(pyridazin-3-yl)-4-(3-((5-(trifluoromethyl)pyridin-2-yl)oxy)benzylidene)piperidine-1-carboxamide]
12.4 ± 0.89 nM | 85.2 ± 9.33 nM | 906 ng·h/mL | 9.3 ng/mL | 0.6 ng·h/mL | 0.3 ng/mL | 208 ng·h/mL | 24 h | 85 h | O=C1CCC(NC(=O)N2CCC(=Cc3cccc(Oc4ccc(C(F)(F)F)cn4)c3)CC2)=NN1 [Compound B, N-(6-oxo-1,4,5,6-tetrahydropyridazin-3-yl)-4-(3-((5-(trifluoromethyl)pyridin-2-yl)oxy)benzylidene)piperidine-1-carboxamide]
